# Measurements from ChEMBL document CHEMBL4765481, “Sialyltransferase Inhibitors Suppress Breast Cancer Metastasis” (J Med Chem, 2021).
# What was measured:
# [1] = target: T1, Beta-galactoside alpha-2,6-sialyltransferase 1 (Homo sapiens, UniProt P15907); experiment: Inhibition of human alpha-2,6-ST6GAL1 assessed as reduction in sialylated-product formation using Gal-beta1-4GlcNac and CMP-NeuSAc incubated for 15 mins by reverse-phase HPLC analysis
# T1 sequence (P15907 whole entry): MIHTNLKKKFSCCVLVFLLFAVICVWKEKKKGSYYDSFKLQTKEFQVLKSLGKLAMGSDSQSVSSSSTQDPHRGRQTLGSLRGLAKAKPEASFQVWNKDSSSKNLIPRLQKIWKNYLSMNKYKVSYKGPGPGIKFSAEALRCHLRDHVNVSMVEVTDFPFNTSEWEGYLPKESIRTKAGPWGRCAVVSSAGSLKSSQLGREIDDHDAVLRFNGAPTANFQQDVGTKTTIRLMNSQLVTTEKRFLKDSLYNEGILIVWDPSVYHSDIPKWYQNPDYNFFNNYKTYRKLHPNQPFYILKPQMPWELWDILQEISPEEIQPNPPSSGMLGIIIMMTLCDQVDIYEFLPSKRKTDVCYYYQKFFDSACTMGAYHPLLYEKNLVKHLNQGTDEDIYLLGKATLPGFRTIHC
# [2] = target: T2, Sialyltransferase ST3Gal-I (Rattus norvegicus) (UniProt Q6H8N0); experiment: Inhibition of rat alpha-2,3-O-ST3GALI assessed as reduction in sialylated-product formation at 500 uM using p-nitrophenyl T-antigen and CMP-NeuSAc incubated for 15 mins by reverse-phase HPLC analysis relative to control
# T2 sequence (whole entry): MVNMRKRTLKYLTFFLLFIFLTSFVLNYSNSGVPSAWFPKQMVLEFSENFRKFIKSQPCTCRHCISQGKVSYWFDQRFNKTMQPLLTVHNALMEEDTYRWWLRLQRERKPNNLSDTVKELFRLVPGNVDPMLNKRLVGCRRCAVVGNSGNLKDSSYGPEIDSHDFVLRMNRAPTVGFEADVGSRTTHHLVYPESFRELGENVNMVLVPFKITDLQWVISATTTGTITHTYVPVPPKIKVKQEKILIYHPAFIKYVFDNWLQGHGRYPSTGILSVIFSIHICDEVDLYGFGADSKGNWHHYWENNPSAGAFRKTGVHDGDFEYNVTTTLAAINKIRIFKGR
# [3] = Selectivity ratio of IC50 for of inhibition of rat alpha-2,3-O-ST3GALI to IC50 for inhibition of human alpha-2,6-ST6GAL1
# [4] = Toxicity in human MDA-MB-231 cells assessed as cell survival at >60 uM relative to control; format: cell-based; settings: read-out: Survival
# [5] = target: T3, CMP-N-acetylneuraminate-beta-1,4-galactoside alpha-2,3-sialyltransferase (Rattus norvegicus, UniProt Q02734); experiment: Inhibition of rat alpha-2,3-N-ST3GALIII assessed as reduction in sialylated-product formation using Gal-beta1-4Glc and CMP-NeuSAc incubated for 1.5 hrs by reverse-phase HPLC analysis
# T3 sequence (Q02734 whole entry): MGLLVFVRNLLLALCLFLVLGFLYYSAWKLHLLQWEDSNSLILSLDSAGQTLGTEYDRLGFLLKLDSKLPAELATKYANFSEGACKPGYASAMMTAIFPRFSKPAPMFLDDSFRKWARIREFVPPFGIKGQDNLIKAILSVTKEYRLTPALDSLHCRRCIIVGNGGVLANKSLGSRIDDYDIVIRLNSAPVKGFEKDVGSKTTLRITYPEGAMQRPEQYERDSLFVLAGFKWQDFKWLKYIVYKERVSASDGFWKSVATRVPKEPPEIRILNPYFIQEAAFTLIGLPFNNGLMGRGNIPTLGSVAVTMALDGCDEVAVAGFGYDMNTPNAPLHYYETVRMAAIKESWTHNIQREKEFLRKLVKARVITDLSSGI
# Rattus norvegicus [6] = species on record: Rattus norvegicus; experiment: Selectivity ratio of inhibition of rat alpha-2,3-O-ST3GALI at 500 uM to IC50 for inhibition of rat alpha-2,3-N-ST3GALIII
# [7] = target: T4, Beta-galactoside alpha-2,6-sialyltransferase 1 (Homo sapiens) (UniProt P15907); experiment: Inhibition of human alpha-2,6-ST6GAL1 assessed as reduction in sialylated-product formation at 100 uM using Gal-beta1-4GlcNac and CMP-NeuSAc incubated for 15 mins by reverse-phase HPLC analysis relative to control
# T4 sequence (whole entry): T1 sequence (P15907 whole entry)
# [8] = target: T2, Sialyltransferase ST3Gal-I (Rattus norvegicus); experiment: Inhibition of rat alpha-2,3-O-ST3GALI assessed as reduction in sialylated-product formation at 1 mM using p-nitrophenyl T-antigen and CMP-NeuSAc incubated for 15 mins by reverse-phase HPLC analysis relative to control
# [9] = target: T5, Sialyltransferase ST3Gal-I (Rattus norvegicus, UniProt Q6H8N0); experiment: Inhibition of rat alpha-2,3-O-ST3GALI assessed as reduction in sialylated-product formation using p-nitrophenyl T-antigen and CMP-NeuSAc incubated for 15 mins by reverse-phase HPLC analysis
# T5 sequence (Q6H8N0 whole entry): T2 sequence (whole entry)
# Rattus norvegicus [10] = species on record: Rattus norvegicus; experiment: Selectivity ratio of IC50 for of inhibition of rat alpha-2,3-O-ST3GALI to IC50 for inhibition of rat alpha-2,3-N-ST3GALIII
# Rattus norvegicus [11] = species on record: Rattus norvegicus; experiment: Selectivity ratio of inhibition of rat alpha-2,3-O-ST3GALI at 1000 uM to IC50 for inhibition of rat alpha-2,3-N-ST3GALIII
# [12] = Apparent permeability at pH 7.4 by PAMPA
Compound,IC50 [1],inhibition [2],Ratio IC50 [3],viability [4],IC50 [5],Selectivity ratio (Rattus norvegicus [6]),inhibition [7],inhibition [8],IC50 [9],Ratio IC50 (Rattus norvegicus [10]),Selectivity ratio (Rattus norvegicus [11]),Papp [12]
C[C@H](CCC(=O)OCCOCCOCCOCCN=[N+]=[N-])[C@H]1CC[C@H]2[C@@H]3CC[C@@H]4C[C@H](OC(=O)[C@H](CC(=O)O)NC(=O)c5ccc([N+](=O)[O-])cc5)CC[C@]4(C)[C@H]3CC[C@]12C,5.7 µM,0%,> 88,> 90%,–,–,–,–,–,–,–,–
C[C@H](CCC(=O)OCCOCCOCCOCCOCCN=[N+]=[N-])[C@H]1CC[C@H]2[C@@H]3CC[C@@H]4C[C@H](OC(=O)[C@H](CC(=O)O)Nc5ccc([N+](=O)[O-])c6nonc56)CC[C@]4(C)[C@H]3CC[C@]12C,5 µM,0%,> 99,> 90%,1 µM,> 516,–,–,–,–,–,–
C[C@H](CCC(=O)OCCOCCOCCOCCOCCN=[N+]=[N-])[C@H]1CC[C@H]2[C@@H]3CC[C@@H]4C[C@H](OC(=O)[C@H](CC(=O)O)NC(=O)c5ccc([N+](=O)[O-])cc5)CC[C@]4(C)[C@H]3CC[C@]12C,7.5 µM,0%,> 67,> 90%,–,–,–,–,–,–,–,–
COc1ccc2c(CC(=O)N[C@@H](CC(=O)O)C(=O)O[C@@H]3CC[C@@]4(C)[C@H](CC[C@@H]5[C@@H]4CC[C@]4(C)[C@@H]([C@H](C)CCC(=O)OCCOCCN=[N+]=[N-])CC[C@@H]54)C3)cc(=O)oc2c1,5.1 µM,0%,> 97,> 90%,–,–,–,–,–,–,–,–
C[C@@H]1O[C@@H](O[C@H]2[C@H](O[C@H]3[C@H](O[C@H]4CC[C@@]5(C)[C@@H](CC[C@]6(C)[C@@H]5CC=C5[C@@H]7CC(C)(C)C[C@@H](O)[C@]7(C)CC[C@]56C)[C@@]4(C)CO)O[C@H](C(=O)O)[C@@H](O)[C@@H]3O)O[C@H](CO)[C@H](O)[C@@H]2O)[C@H](O)[C@H](O)[C@H]1O,–,59%,–,–,–,–,68%,83%,–,–,–,–
C[C@H](CCC(=O)O)[C@H]1CC[C@H]2[C@@H]3CC[C@@H]4C[C@H](OC(=O)[C@@H](N)CC(=O)O)CC[C@]4(C)[C@H]3CC[C@]12C,15.8 µM,–,3,–,12 µM,–,–,–,39 µM,3,–,–
C[C@H](CCC(=O)NCC(=O)O)[C@H]1CC[C@H]2[C@@H]3CC[C@@H]4C[C@H](O)CC[C@]4(C)[C@H]3CC[C@]12C,–,15%,–,–,–,–,9%,41%,–,–,–,–
COc1ccc2c(CC(=O)N[C@@H](CC(=O)O)C(=O)O[C@@H]3CC[C@@]4(C)[C@H](CC[C@@H]5[C@@H]4CC[C@]4(C)[C@@H]([C@H](C)CCC(=O)OCCN=[N+]=[N-])CC[C@@H]54)C3)cc(=O)oc2c1,5.6 µM,0%,> 89,> 90%,–,–,–,–,–,–,–,–
C[C@H](CCC(=O)OCCN=[N+]=[N-])[C@H]1CC[C@H]2[C@@H]3CC[C@@H]4C[C@H](OC(=O)[C@H](CC(=O)O)NC(=O)c5ccc([N+](=O)[O-])cc5)CC[C@]4(C)[C@H]3CC[C@]12C,7.2 µM,0%,> 70,> 90%,–,–,–,–,–,–,–,–
COc1ccc2c(CC(=O)N[C@@H](CC(=O)O)C(=O)O[C@@H]3CC[C@@]4(C)[C@H](CC[C@@H]5[C@@H]4CC[C@]4(C)[C@@H]([C@H](C)CCC(=O)OCCOCCOCCN=[N+]=[N-])CC[C@@H]54)C3)cc(=O)oc2c1,4.6 µM,0%,> 109,> 90%,–,–,–,–,–,–,–,–
COc1ccc2c(CC(=O)N[C@@H](CC(=O)O)C(=O)O[C@@H]3CC[C@@]4(C)[C@H](CC[C@@H]5[C@@H]4CC[C@]4(C)[C@@H]([C@H](C)CCC(=O)OCCOCCOCCOCCN=[N+]=[N-])CC[C@@H]54)C3)cc(=O)oc2c1,5 µM,0%,> 101,> 90%,–,–,–,–,–,–,–,–
C[C@H](CCC(=O)O)[C@H]1CC[C@H]2[C@@H]3CC[C@@H]4C[C@H](OC(=O)[C@H](CCC(=O)O)Nc5ccc([N+](=O)[O-])c6nonc56)CC[C@]4(C)[C@H]3CC[C@]12C,–,–,9,–,0.9 µM,–,–,–,13.2 µM,15,–,–
C[C@H](CCC(=O)OCCN=[N+]=[N-])[C@H]1CC[C@H]2[C@@H]3CC[C@@H]4C[C@H](OC(=O)[C@H](CC(=O)O)Nc5ccc([N+](=O)[O-])c6nonc56)CC[C@]4(C)[C@H]3CC[C@]12C,4.2 µM,0%,> 119,> 90%,0.8 µM,> 625,–,–,–,–,–,–
C[C@H](CCC(=O)OCCOCCN=[N+]=[N-])[C@H]1CC[C@H]2[C@@H]3CC[C@@H]4C[C@H](OC(=O)[C@H](CC(=O)O)NC(=O)c5ccc([N+](=O)[O-])cc5)CC[C@]4(C)[C@H]3CC[C@]12C,6.7 µM,0%,> 74,> 90%,–,–,–,–,–,–,–,–
C[C@H](CCC(=O)OCCOCCN=[N+]=[N-])[C@H]1CC[C@H]2[C@@H]3CC[C@@H]4C[C@H](OC(=O)[C@H](CC(=O)O)Nc5ccc([N+](=O)[O-])c6nonc56)CC[C@]4(C)[C@H]3CC[C@]12C,4.33 µM,0%,> 116,> 90%,0.77 µM,> 649,–,74%,–,–,< 1300,–
C[C@H](CCC(=O)OCCOCCOCCN=[N+]=[N-])[C@H]1CC[C@H]2[C@@H]3CC[C@@H]4C[C@H](OC(=O)[C@H](CC(=O)O)NC(=O)c5ccc([N+](=O)[O-])cc5)CC[C@]4(C)[C@H]3CC[C@]12C,5.4 µM,0%,> 94,> 90%,–,–,–,–,–,–,–,–
COc1ccc2c(CC(=O)N[C@@H](CC(=O)O)C(=O)O[C@@H]3CC[C@@]4(C)[C@H](CC[C@@H]5[C@@H]4CC[C@]4(C)[C@@H]([C@H](C)CCC(=O)OCCOCCOCCOCCOCCN=[N+]=[N-])CC[C@@H]54)C3)cc(=O)oc2c1,5.7 µM,0%,> 88,> 90%,–,–,–,–,–,–,–,–
Cn1c(=O)c2[nH]cnc2n(C)c1=O.O [THEOPHYLLINE],–,–,–,–,–,–,–,–,–,–,–,14 nm/s
